Here are results for 24 compounds from PubChem BioAssay AID248 (DTP/NCI, 2004).

Structures are written as SMILES. Several values for one entry are separate records, joined by “and”; a condition that tells them apart may be missing. Equal values may be shown once. Inconclusive results and toxic doses are left out.

The experiment has as its system L1210 leukemia ip in BDF1 mice, survival T/C. Put plainly: NCI In Vivo Anticancer Drug Screen. Data for tumor model L1210 Leukemia (intraperitoneal) in B6D2F1 (BDF1) mice. As to conditions: endpoint: mean survival time, higher = longer survival. Put shortly: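 Mice bearing the transplanted tumor received compound or vehicle. Survival of the treated group was divided by that of the vehicle-treated control group to give the ratio.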

The mark [1] stands for this setting: dose: 100.0 mg/kg/injection, schedule: Q04DX003 (ip), vehicle: saline with Tween-80.
Setting [2] is: dose: 200.0 mg/kg/injection, schedule: Q04DX003 (ip), vehicle: saline with Tween-80.
The mark [3] stands for this setting: dose: 400.0 mg/kg/injection, schedule: Q04DX003 (ip), vehicle: saline with Tween-80.
[4] abbreviates: dose: 75.0 mg/kg/injection, schedule: Q01DX001 (ip), vehicle: carboxymethylcellulose (CMC).
The mark [5] stands for this setting: dose: 150.0 mg/kg/injection, schedule: Q01DX001 (ip), vehicle: carboxymethylcellulose (CMC).
[6] abbreviates: dose: 12.5 mg/kg/injection, schedule: Q04DX002 (ip), vehicle: Klucel (hydroxypropylcellulose) (HPC).
The mark [7] stands for this setting: dose: 25.0 mg/kg/injection, schedule: Q04DX002 (ip), vehicle: Klucel (hydroxypropylcellulose) (HPC).
Setting [8] is: dose: 50.0 mg/kg/injection, schedule: Q04DX002 (ip), vehicle: Klucel (hydroxypropylcellulose) (HPC).
The mark [9] stands for this setting: dose: 100.0 mg/kg/injection, schedule: Q01DX001 (ip), vehicle: saline.
Where [10] appears, read: dose: 200.0 mg/kg/injection, schedule: Q01DX001 (ip), vehicle: saline.
The mark [11] stands for this setting: dose: 400.0 mg/kg/injection, schedule: Q01DX001 (ip), vehicle: saline.
The mark [12] stands for this setting: dose: 100.0 mg/kg/injection, schedule: Q01DX001 (ip), vehicle: Klucel (hydroxypropylcellulose) (HPC).
[13] abbreviates: dose: 100.0 mg/kg/injection, schedule: Q01DX009 (ip), vehicle: Klucel (hydroxypropylcellulose) (HPC).
Where [14] appears, read: dose: 200.0 mg/kg/injection, schedule: Q01DX001 (ip), vehicle: Klucel (hydroxypropylcellulose) (HPC).
[15] abbreviates: dose: 200.0 mg/kg/injection, schedule: Q01DX009 (ip), vehicle: Klucel (hydroxypropylcellulose) (HPC).
[16] abbreviates: dose: 400.0 mg/kg/injection, schedule: Q01DX001 (ip), vehicle: Klucel (hydroxypropylcellulose) (HPC).
The mark [17] stands for this setting: dose: 400.0 mg/kg/injection, schedule: Q01DX009 (ip), vehicle: Klucel (hydroxypropylcellulose) (HPC).
Where [18] appears, read: dose: 50.0 mg/kg/injection, schedule: Q01DX009 (ip), vehicle: Klucel (hydroxypropylcellulose) (HPC).
Where [19] appears, read: dose: 25.0 mg/kg/injection, schedule: Q04DX002 (ip), vehicle: saline.
Setting [20] is: dose: 50.0 mg/kg/injection, schedule: Q04DX002 (ip), vehicle: saline.
The mark [21] stands for this setting: dose: 100.0 mg/kg/injection, schedule: Q04DX002 (ip), vehicle: saline.

For the compound `CCCCCCCCCCCC(=O)OCC1OC2C(Oc3nc(=N)ccn32)C1OC(=O)CCCCCCCCCCC` (stereo not given), the T/C runs as follows: (dose: 12.5 mg/kg/injection, schedule: Q01DX009 (ip), vehicle: water) 157 % of control; (dose: 25.0 mg/kg/injection, schedule: Q01DX009 (ip), vehicle: water) 210 % of control; (dose: 50.0 mg/kg/injection, schedule: Q01DX009 (ip), vehicle: water) 165 % of control.

Regarding `Cc1c2ccncc2cc2c3ccccc3n(C)c12`, the T/C is, setting by setting: (dose: 37.5 mg/kg/injection, schedule: Q04DX003 (ip), vehicle: Klucel (hydroxypropylcellulose) (HPC)) 98 % of control; (dose: 75.0 mg/kg/injection, schedule: Q04DX003 (ip), vehicle: Klucel (hydroxypropylcellulose) (HPC)) 103 % of control; (dose: 150.0 mg/kg/injection, schedule: Q04DX003 (ip), vehicle: Klucel (hydroxypropylcellulose) (HPC)) 102 % of control; (dose: 300.0 mg/kg/injection, schedule: Q04DX003 (ip), vehicle: Klucel (hydroxypropylcellulose) (HPC)) 115 % of control.

For `CC(O)(/C=C\c1ccccc1)c1ccccc1` (stereo not given), the T/C is, setting by setting: (dose: 100.0 mg/kg/injection, schedule: Q01DX009 (ip), vehicle: saline with Tween-80) 104 % of control; under setting [1], 103 % of control; (dose: 200.0 mg/kg/injection, schedule: Q01DX009 (ip), vehicle: saline with Tween-80) 102 % of control; under setting [2], 101 % of control; (dose: 400.0 mg/kg/injection, schedule: Q01DX009 (ip), vehicle: saline with Tween-80) 93 % of control; under setting [3], 108 % of control.

`Nc1ccc2c(c1)C(=O)c1c(C(=O)O)cccc1-2`: the T/C is 108 % of control under setting [4] and 101 % of control under setting [5].

In the case of `NC(N)=Nc1ccc([N+](=O)[O-])cc1`, the T/C runs as follows: under setting [6], 103 % of control; under setting [7], 98 % of control; under setting [8], 103 % of control.

As to `Cc1nc(N)[nH]c(=O)c1CCCNS(=O)(=O)c1ccc(CN)cc1`, the T/C was 115 % of control under setting [9], 98 % of control under setting [10] and 101 % of control under setting [11].

As for `CC(C)(OC(=O)C(NC=O)C(C)(C)S)OC(=O)C(NC=O)C(C)(C)S` (stereo not given), the T/C is, setting by setting: under setting [1], 98 % of control; under setting [2], 95 % of control; under setting [3], 100 % of control.

For the compound `C/C(=N\NC(N)=O)C1CCC(c2ccccc2)CC1` (stereo not given), the T/C runs as follows: under setting [12], 103 % of control; under setting [13], 90 % of control; under setting [14], 96 % of control; under setting [15], 86 % of control; under setting [16], 92 % of control; under setting [17], 91 % of control.

`Cc1cc(C)c(NC(=O)C(C)(C)C)c(C)c1`: the T/C under setting [13] was 96 % of control and 100 % of control; the T/C under setting [15] is 102 % of control; the T/C under setting [17] is 96 % of control and 100 % of control.

As to `ClC1CCC[N-]C1.ClC1CCC[N-]C1.[Cl][Pt+2][Cl]` (stereo not given), the T/C is, setting by setting: (dose: 50.0 mg/kg/injection, schedule: Q04DX003 (ip), vehicle: saline with Tween-80) 102 % of control; under setting [1], 104 % of control; under setting [2], 102 % of control.

With `CC(C)(C)C1CSC(c2ccccc2)SC1` (stereo not given), the T/C by setting is: under setting [6], 98 % of control; under setting [7], 92 % of control; under setting [8], 98 % of control.

As to `Nc1nc(N)c2nc(CNc3ccc(C(=O)NCCCC(=O)O)cc3)cnc2n1` (tested in a mixture with another compound), the T/C was 92 % of control (dose: 12.5 mg/kg/injection, schedule: Q01DX001 (ip), vehicle: Klucel (hydroxypropylcellulose) (HPC)); 97 % of control (dose: 25.0 mg/kg/injection, schedule: Q01DX001 (ip), vehicle: Klucel (hydroxypropylcellulose) (HPC)); 108 % of control under setting [12].

Turning to `O=C(O)/C=C/C(=O)OCCO`, the T/C under setting [4] is 91 % of control and the T/C under setting [5] was 86 % of control.

Regarding `COCc1ccc([N+](=O)[O-])o1`, the T/C was 101 % of control under setting [9], 103 % of control under setting [10] and 101 % of control under setting [11].

For `CC(=O)Oc1cc2c(cc1N=NN(C)C)[C@H]1CC[C@]3(C)[C@@H](O)CC[C@H]3[C@@H]1CC2`, the T/C under setting [18] was 95 % of control.

For the compound `Cc1ccccc1-n1c(C)nc2ccccc2c1=O`, the T/C by setting is: (dose: 75.0 mg/kg/injection, schedule: Q01DX001 (ip), vehicle: saline) 102 % of control; (dose: 100.0 mg/kg/injection, schedule: Q01DX001 (ip), vehicle: other) 94 % of control; under setting [13], 97 % of control; (dose: 100.0 mg/kg/injection, schedule: Q04DX003 (ip), vehicle: Klucel (hydroxypropylcellulose) (HPC)) 101 % of control; (dose: 150.0 mg/kg/injection, schedule: Q01DX001 (ip), vehicle: saline) 106 % of control; (dose: 200.0 mg/kg/injection, schedule: Q01DX001 (ip), vehicle: other) 100 % of control. Also, the T/C by setting is: under setting [15], 105 % of control; (dose: 200.0 mg/kg/injection, schedule: Q04DX003 (ip), vehicle: Klucel (hydroxypropylcellulose) (HPC)) 105 % of control; (dose: 300.0 mg/kg/injection, schedule: Q01DX001 (ip), vehicle: saline) 107 % of control; (dose: 400.0 mg/kg/injection, schedule: Q01DX001 (ip), vehicle: other) 96 % of control; (dose: 400.0 mg/kg/injection, schedule: Q04DX003 (ip), vehicle: Klucel (hydroxypropylcellulose) (HPC)) 111 % of control.

With `COc1ccc(CC(C(=O)O)C(Cc2ccc(OC)c(OC)c2)C(=O)O)cc1OC` (stereo not given), the T/C under setting [18] was 94 % of control; the T/C under setting [13] is 104 % of control; the T/C (dose: 100.0 mg/kg/injection, schedule: Q04DX003 (ip), vehicle: saline) is 118 % of control; the T/C under setting [15] is 95 % of control; the T/C (dose: 200.0 mg/kg/injection, schedule: Q04DX003 (ip), vehicle: saline) was 114 % of control; the T/C under setting [17] is 91 % of control. For the setting “dose: 400.0 mg/kg/injection, schedule: Q04DX003 (ip), vehicle: saline”, the T/C is 98 % of control.

Regarding `O=C1C=C(S(=O)(=O)c2ccccc2)C(=O)c2ccccc21`, the T/C (dose: 75.0 mg/kg/injection, schedule: Q01DX001 (ip), vehicle: other) is 93 % of control and the T/C (dose: 150.0 mg/kg/injection, schedule: Q01DX001 (ip), vehicle: other) is 98 % of control.

As to `NC(=O)C1OC(CO)C(O)C1O` (stereo not given), the T/C under setting [1] was 105 % of control, the T/C under setting [2] was 94 % of control and the T/C under setting [3] is 94 % of control.

In the case of `COc1ccc2c(c1)CN(S(=O)(=O)c1ccc(C)cc1)CC/C2=N\O`, the T/C by setting is: (dose: 100.0 mg/kg/injection, schedule: Q01DX009 (ip), vehicle: saline) 94 % of control; (dose: 200.0 mg/kg/injection, schedule: Q01DX009 (ip), vehicle: saline) 94 % of control; (dose: 400.0 mg/kg/injection, schedule: Q01DX009 (ip), vehicle: saline) 104 % of control.

For the compound `NCc1cc[n+]([O-])cc1`, the T/C is 102 % of control under setting [19]; 102 % of control under setting [20]; 102 % of control under setting [21]; 88 % of control (dose: 400.0 mg/kg/injection, schedule: Q04DX002 (ip), vehicle: saline).

Consider `BrC1CCC(Br)C(Br)CCC1Br` (stereo not given), for which the T/C reads like this: under setting [12], 101 % of control; under setting [13], 104 % of control; under setting [14], 97 % of control; under setting [15], 97 % of control; under setting [16], 95 % of control; under setting [17], 90 % of control.

On to `CC(=O)Nc1ccc(Oc2ccc(NC(C)=O)cc2)cc1`, for which the T/C runs as follows: under setting [19], 90 % of control; under setting [20], 97 % of control; under setting [21], 117 % of control.

Regarding `Clc1cccc2nsnc12`, the T/C reads like this: under setting [13], 102 % of control; under setting [15], 100 % of control; under setting [17], 102 % of control.
